For four molecules, relative viability results are on record in the supplement of paper PMC10883282.

SMILES strings stand for the structures. ± gives the standard deviation of the averaged measurements.

The subject of this assay is SW684. In words: relative viability vs DMSO control (72 h) (fraction); higher = more viable cells. The procedure, abridged: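 Serially diluted compound, 2.5 µl from source plates spanning 10 mM to 0.0002 mM, was added 24 h after sarcoma cell lines were seeded in 384-well plates at densities targeting 80–90% confluence. Plates then sat 72 h at 37 °C, 5% CO2, with 0.1% DMSO vehicle and a 5 µM positive control. Relative viability came from ATPLite as percent growth, averaged over up to triplicate wells, and was rescaled with 1 as full and 0 as none.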

Take `C[C@]1(O)C[C@@H](c2nc(-c3ccc4ccc(-c5ccccc5)nc4c3)c3c(N)nccn32)C1` [Linsitinib]: the relative viability by setting is: (0.00017 µM) 1.13 ± 0.073; (0.00051 µM) 1.17 ± 0.016; (0.00152 µM) 1.18 ± 0.021; (0.00457 µM) 1.159 ± 0.0094; (0.01372 µM) 1.16 ± 0.065; (0.04115 µM) 1.14 ± 0.021. Further, the relative viability by setting is: (0.1235 µM) 1.13 ± 0.039; (0.3704 µM) 1.11 ± 0.04; (1.111 µM) 1.09 ± 0.035; (3.333 µM) 1.07 ± 0.019; (10 µM) 0.978 ± 0.057.

As for `C=CC(=O)N1CCC([C@@H]2CCNc3c(C(N)=O)c(-c4ccc(Oc5ccccc5)cc4)nn32)CC1` [Zanubrutinib], the relative viability runs as follows: (0.00017 µM) 0.998 ± 0.075; (0.00051 µM) 1.03 ± 0.08; (0.00152 µM) 1 ± 0.07; (0.00457 µM) 0.998 ± 0.054; (0.01372 µM) 1 ± 0.069; (0.04115 µM) 1.01 ± 0.028. The relative viability came to 1.01 ± 0.047 (0.1235 µM); 0.978 ± 0.074 (0.3704 µM); 0.985 ± 0.048 (1.111 µM); 0.925 ± 0.038 (3.333 µM); 0.89 ± 0.042 (10 µM).

In the case of `Cn1cc(-c2cc3c(N4CCN(c5ncc([C@@](C)(N)c6ccc(F)cc6)cn5)CC4)ncnn3c2)cn1` [Avapritinib], the relative viability (0.00017 µM) stood at 1.058 ± 0.0041; the relative viability (0.00051 µM) was 1.04 ± 0.013; the relative viability (0.00152 µM) was 1.07 ± 0.036; the relative viability (0.00457 µM) was determined as 1.05 ± 0.031; the relative viability (0.01372 µM) was 1.05 ± 0.035; the relative viability (0.04115 µM) is 1.01 ± 0.017. This molecule yielded a relative viability (0.1235 µM) of 1.09 ± 0.064; a relative viability (0.3704 µM) of 1.06 ± 0.034; a relative viability (1.111 µM) of 1.02 ± 0.021; a relative viability (3.333 µM) of 1.03 ± 0.03; a relative viability (10 µM) of 0.95 ± 0.038.

In turn, `CC(=O)Nc1cccc(-n2c(=O)n(C3CC3)c(=O)c3c(Nc4ccc(I)cc4F)n(C)c(=O)c(C)c32)c1` [Trametinib] came in with a relative viability (0.00017 µM) of 1.16 ± 0.02; a relative viability (0.00051 µM) of 1.17 ± 0.045; a relative viability (0.00152 µM) of 1.19 ± 0.04; a relative viability (0.00457 µM) of 1.14 ± 0.035; a relative viability (0.01372 µM) of 1.05 ± 0.0092; a relative viability (0.04115 µM) of 0.859 ± 0.018. Moreover, the relative viability (0.1235 µM) came to 0.615 ± 0.0083; the relative viability (0.3704 µM) came out at 0.552 ± 0.011; the relative viability (1.111 µM) was determined as 0.511 ± 0.017; the relative viability (3.333 µM) came to 0.517 ± 0.0077; the relative viability (10 µM) turned out to be 0.4614 ± 0.002.
